Patent US20260356840A1, “[1,2,4]TRIAZOLO[1,5-A]PYRIMIDINONE WRN INHIBITORS” (Nimbus Wadjet, Inc., priority 2023, published 2026)

target: T1, human Werner helicase (Uniprot Q14191, amino acids 517-1235 with L1074F point mutation), WRN-BV08 (Homo sapiens, UniProt Q14191, L1074F); test: WRN (BV08) ADP-Glo Assay; type: biochemical
T1 construct: Uniprot Q14191, amino acids 517-1235 with L1074F point mutation; TEV cleavable 8xHis tag (C, cleaved yes); made in house; host or cells: Sf9 insect cells (baculovirus, pFastBac)
Method: DNA duplex was synthesized at BGI (Shenzhen, China) and was composed of strand 1 with the sequence 5′-[…]-3′ (SEQ ID NO.: 1) and strand 2 with the sequence 5′-[…]-3′ (SEQ ID NO.: 2). DNA strands were annealed by heating to 95 °C for 5 minutes followed by slow cooling to room temperature. […] DMSO (0.1 μl) was added to columns 12, rows A-H and column 24, rows I-P for the maximum signal control.
Where RLU=relative luminescence units, sample=signal in sample well, and MIN and MAX are the respective minimum and maximum signal controls. • Four-parameter IC50 fit equation:
Y=Bottom+(Top−Bottom)/(1+(IC50/X)^Hill Slope)
Where top and bottom are normally allowed to float but may be fixed at 100 or 0 respectively in a 3-parameter fit. Y is the % inhibition and X is the compound concentration.
Molecular Biology and virus production. […] The baculovirus from the expression plasmid WRN-BV08 was generated from transfection and amplification following the manufacturer's instructions.
Sf9 cells grown in SF900II media were infected with 1:200 WRN-BV08 P2 virus and incubated for protein expression for 72 h at 27 °C. The WRN protein was purified using the following protocol. The cell pellets were thawed and resuspended in buffer A (50 mM Tris, pH 7.5, 500 mM NaCl, 1 mM TCEP, 10% Glycerol) supplemented with 0.5% CHAPS, 1 mM [COMPOUND LEFT OUT], 1 μg/ml Leupeptin, 1 μg/ml Pepstatin, and the Pierce Universal Nuclease and cocktail tablet. Cleared lysates were loaded onto a Ni Sepharose™ excel column and washed with buffer A and bound protein was eluted with buffer A supplemented with 300 mM imidazole. The eluted protein was dialyzed against buffer A and digested by His-tagged TEV (1:5 ratio) overnight at 4 °C. […] Untagged WRN protein was eluted from the column with buffer A supplemented with 20 mM imidazole, dialyzed overnight into buffer B (50 mM Tris, pH 7.5, 1 mM TCEP, 10% Glycerol) supplemented with 150 mM NaCl and loaded onto a Heparin column. Proteins were eluted with a step gradient of buffer B supplemented with 150 mM, 200 mM, 300 mM and 500 mM NaCl.

T1 sequence (Q14191 517-1235 L1074F): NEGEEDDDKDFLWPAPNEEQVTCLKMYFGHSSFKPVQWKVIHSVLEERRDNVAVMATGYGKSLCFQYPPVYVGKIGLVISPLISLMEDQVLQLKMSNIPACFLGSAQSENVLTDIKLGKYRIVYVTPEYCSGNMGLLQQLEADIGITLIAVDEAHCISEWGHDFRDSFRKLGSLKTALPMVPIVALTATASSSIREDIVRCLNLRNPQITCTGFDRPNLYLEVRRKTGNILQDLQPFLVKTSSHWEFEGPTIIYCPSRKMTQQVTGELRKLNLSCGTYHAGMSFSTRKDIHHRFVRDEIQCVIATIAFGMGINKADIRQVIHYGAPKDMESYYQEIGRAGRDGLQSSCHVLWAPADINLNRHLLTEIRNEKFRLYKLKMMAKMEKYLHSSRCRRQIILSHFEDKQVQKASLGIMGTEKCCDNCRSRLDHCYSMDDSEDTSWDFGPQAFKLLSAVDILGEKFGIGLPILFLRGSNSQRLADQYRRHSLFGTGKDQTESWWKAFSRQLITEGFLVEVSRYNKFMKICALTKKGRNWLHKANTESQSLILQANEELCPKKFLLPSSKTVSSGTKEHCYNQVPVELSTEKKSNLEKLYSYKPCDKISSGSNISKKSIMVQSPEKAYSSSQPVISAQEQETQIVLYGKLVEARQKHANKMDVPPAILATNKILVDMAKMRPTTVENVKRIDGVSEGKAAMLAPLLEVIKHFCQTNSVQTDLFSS

IC50	SMILES
5 to 50 nM	CCc1c(N2CCN(C(=O)c3c(O)cccc3OC)CC2)c(=O)n2nc(C3=CCOCC3)nc2n1CC(=O)Nc1ccc(C(F)(F)F)cc1Cl [Compound I-4, N-[2-chloro-4-(trifluoromethyl)phenyl]-2-[2-(3,6-dihydro-2H-pyran-4-yl)-5-ethyl-6-[4-(2-hydroxy-6-methoxybenzoyl)piperazin-1-yl]-7-oxo-4H,7H-[1,2,4]triazolo[1,5-a]pyrimidin-4-yl]acetamide]
5 to 50 nM	CCc1c(N2CCN(C(=O)c3ncc4c(c3O)OCC4)CC2)c(=O)n2nc(C3=CCOCC3)nc2n1CC(=O)Nc1ccc(C(F)(F)F)cc1Cl [Compound I-83, N-[2-chloro-4-(trifluoromethyl)phenyl]-2-[2-(3,6-dihydro-2H-pyran-4-yl)-5-ethyl-6-(4-{7-hydroxy-2H,3H-furo[3,2-c]pyridine-6-carbonyl}piperazin-1-yl)-7-oxo-4H,7H-[1,2,4]triazolo[1,5-a]pyrimidin-4-yl]acetamide]
5 to 50 nM	CCc1c(N2CCN(C(=O)c3ncnc(C)c3O)CC2)c(=O)n2nc(-c3cnc(OC)c(C)c3)nc2n1CC(=O)Nc1ccc(C(F)(F)F)cc1Cl [Compound I-42, N-[2-chloro-4-(trifluoromethyl)phenyl]-2-{5-ethyl-6-[4-(5-hydroxy-6-methylpyrimidine-4-carbonyl)piperazin-1-yl]-2-(6-methoxy-5-methylpyridin-3-yl)-7-oxo-4H,7H-[1,2,4]triazolo[1,5-a]pyrimidin-4-yl}acetamide]
< 5 nM	CCc1c(N2CCN(C(=O)c3cccc4cn[nH]c34)CC2)c(=O)n2nc(C3=CCOCC3)nc2n1CC(=O)Nc1ccc(C(F)(F)F)cc1Cl [Compound I-14, N-[2-chloro-4-(trifluoromethyl)phenyl]-2-[2-(3,6-dihydro-2H-pyran-4-yl)-5-ethyl-6-[4-(1H-indazole-7-carbonyl)piperazin-1-yl]-7-oxo-4H,7H-[1,2,4]triazolo[1,5-a]pyrimidin-4-yl]acetamide]
50 to 100 nM	CCc1c(N2CCN(C(=O)C(F)(F)F)CC2)c(=O)n2nc(-c3ccnc(OC)c3)nc2n1CC(=O)Nc1ccc(C(F)(F)F)cc1Cl [Compound I-47, N-[2-chloro-4-(trifluoromethyl)phenyl]-2-[5-ethyl-2-(2-methoxypyridin-4-yl)-7-oxo-6-[4-(2,2,2-trifluoroacetyl)piperazin-1-yl]-4H,7H-[1,2,4]triazolo[1,5-a]pyrimidin-4-yl]acetamide]
5 to 50 nM	CCc1c(N2CCN(C(=O)c3cnn(C)c3)CC2)c(=O)n2nc(-c3ccnc(OC4CC4)c3)nc2n1CC(=O)Nc1ccc(C(F)(F)F)cc1Cl [Compound I-52, N-[2-chloro-4-(trifluoromethyl)phenyl]-2-[2-(2-cyclopropoxypyridin-4-yl)-5-ethyl-6-[4-(1-methyl-1H-pyrazole-4-carbonyl)piperazin-1-yl]-7-oxo-4H,7H-[1,2,4]triazolo[1,5-a]pyrimidin-4-yl]acetamide]
5 to 50 nM	CCc1c(N2CCN(C(=O)c3c(C)cnc(C)c3O)CC2)c(=O)n2nc(C3=CCOCC3)nc2n1CC(=O)Nc1ccc(C(F)(F)F)cc1Cl [Compound I-13, N-[2-chloro-4-(trifluoromethyl)phenyl]-2-[2-(3,6-dihydro-2H-pyran-4-yl)-5-ethyl-6-[4-(3-hydroxy-2,5-dimethylpyridine-4-carbonyl)piperazin-1-yl]-7-oxo-4H,7H-[1,2,4]triazolo[1,5-a]pyrimidin-4-yl]acetamide]
5 to 50 nM	CCc1c(N2CCN(C(=O)CCO)CC2)c(=O)n2nc(C3=CCOCC3)nc2n1CC(=O)Nc1ccc(C(F)(F)F)cc1Cl [Compound I-24, N-[2-chloro-4-(trifluoromethyl)phenyl]-2-[2-(3,6-dihydro-2H-pyran-4-yl)-5-ethyl-6-[4-(3-hydroxypropanoyl)piperazin-1-yl]-7-oxo-4H,7H-[1,2,4]triazolo[1,5-a]pyrimidin-4-yl]acetamide]
5 to 50 nM	CCc1c(N2CCN(C(=O)c3ncnc(C)c3O)CC2)c(=O)n2nc(-c3ccn(C4CC4)n3)nc2n1CC(=O)Nc1ccc(C(F)(F)F)cc1Cl [Compound I-33, N-[2-chloro-4-(trifluoromethyl)phenyl]-2-[2-(1-cyclopropyl-1H-pyrazol-3-yl)-5-ethyl-6-[4-(5-hydroxy-6-methylpyrimidine-4-carbonyl)piperazin-1-yl]-7-oxo-4H,7H-[1,2,4]triazolo[1,5-a]pyrimidin-4-yl]acetamide]
5 to 50 nM	CCc1c(N2CCN(C(C)=O)CC2)c(=O)n2nc(C3=CCOCC3)nc2n1CC(=O)Nc1ccc(C(F)(F)F)cc1Cl [Compound I-16, 2-[6-(4-acetylpiperazin-1-yl)-2-(3,6-dihydro-2H-pyran-4-yl)-5-ethyl-7-oxo-4H,7H-[1,2,4]triazolo[1,5-a]pyrimidin-4-yl]-N-[2-chloro-4-(trifluoromethyl)phenyl]acetamide]
5 to 50 nM	CCc1c(N2CCN(C(=O)[C@H]3C[C@@H](O)C3)CC2)c(=O)n2nc(C3=CCOCC3)nc2n1CC(=O)Nc1ccc(C(F)(F)F)cc1Cl [Compound I-39, N-[2-chloro-4-(trifluoromethyl)phenyl]-2-[2-(3,6-dihydro-2H-pyran-4-yl)-5-ethyl-7-oxo-6-{4-[(1s,3s)-3-hydroxycyclobutanecarbonyl]piperazin-1-yl}-4H,7H-[1,2,4]triazolo[1,5-a]pyrimidin-4-yl]acetamide]
5 to 50 nM	CCc1c(N2CC3CN(C(=O)c4ncnc(C)c4O)CC3C2)c(=O)n2nc(C3=CCOCC3)nc2n1CC(=O)Nc1ccc(C(F)(F)F)cc1Cl (stereo not drawn) [Compound I-8, N-[2-chloro-4-(trifluoromethyl)phenyl]-2-[2-(3,6-dihydro-2H-pyran-4-yl)-5-ethyl-6-[5-(5-hydroxy-6-methylpyrimidine-4-carbonyl)-octahydropyrrolo[3,4-c]pyrrol-2-yl]-7-oxo-4H,7H-[1,2,4]triazolo[1,5-a]pyrimidin-4-yl]acetamide]
< 5 nM	CCc1c(N2CCN(C(=O)c3cn(C)[nH]c3=O)CC2)c(=O)n2nc(C3=CCOCC3)nc2n1CC(=O)Nc1ccc(C(F)(F)F)cc1Cl [Compound I-11, N-[2-chloro-4-(trifluoromethyl)phenyl]-2-[2-(3,6-dihydro-2H-pyran-4-yl)-5-ethyl-6-[4-(3-hydroxy-1-methyl-1H-pyrazole-4-carbonyl)piperazin-1-yl]-7-oxo-4H,7H-[1,2,4]triazolo[1,5-a]pyrimidin-4-yl]acetamide]
5 to 50 nM	CCc1c(N2CCN(C(=O)C(C)(C)CO)CC2)c(=O)n2nc(C3=CCOCC3)nc2n1CC(=O)Nc1ccc(C(F)(F)F)cc1Cl [Compound I-20, N-[2-chloro-4-(trifluoromethyl)phenyl]-2-[2-(3,6-dihydro-2H-pyran-4-yl)-5-ethyl-6-[4-(3-hydroxy-2,2-dimethylpropanoyl)piperazin-1-yl]-7-oxo-4H,7H-[1,2,4]triazolo[1,5-a]pyrimidin-4-yl]acetamide]
5 to 50 nM	CCc1c(N2CCN(C(=O)c3ccnc(OC)c3O)CC2)c(=O)n2nc(C3=CCOCC3)nc2n1CC(=O)Nc1ccc(C(F)(F)F)cc1Cl [Compound I-34, N-[2-chloro-4-(trifluoromethyl)phenyl]-2-[2-(3,6-dihydro-2H-pyran-4-yl)-5-ethyl-6-[4-(3-hydroxy-2-methoxypyridine-4-carbonyl)piperazin-1-yl]-7-oxo-4H,7H-[1,2,4]triazolo[1,5-a]pyrimidin-4-yl]acetamide]
5 to 50 nM	CCc1c(N2CCN(C(=O)c3ncnc(C)c3O)CC2)c(=O)n2nc(-c3ccnc(OC(F)F)c3)nc2n1CC(=O)Nc1ccc(C(F)(F)F)cc1Cl [Compound I-44, N-[2-chloro-4-(trifluoromethyl)phenyl]-2-{2-[2-(difluoromethoxy)pyridin-4-yl]-5-ethyl-6-[4-(5-hydroxy-6-methylpyrimidine-4-carbonyl)piperazin-1-yl]-7-oxo-4H,7H-[1,2,4]triazolo[1,5-a]pyrimidin-4-yl}acetamide]
5 to 50 nM	CCc1c(N2CCN(C(C)=O)CC2)c(=O)n2nc(-c3cnn(CC(C)(C)O)c3)nc2n1CC(=O)Nc1ccc(C(F)(F)F)cc1Cl [Compound I-55, 2-[6-(4-acetylpiperazin-1-yl)-5-ethyl-2-[1-(2-hydroxy-2-methylpropyl)-1H-pyrazol-4-yl]-7-oxo-4H,7H-[1,2,4]triazolo[1,5-a]pyrimidin-4-yl]-N-[2-chloro-4-(trifluoromethyl)phenyl]acetamide]
< 5 nM	CCc1c(N2CCN(C(=O)c3ncc4c(c3O)CCO4)CC2)c(=O)n2nc(C3=CCOCC3)nc2n1CC(=O)Nc1ccc(C(F)(F)F)cc1Cl [Compound I-84, N-[2-chloro-4-(trifluoromethyl)phenyl]-2-[2-(3,6-dihydro-2H-pyran-4-yl)-5-ethyl-6-(4-{4-hydroxy-2H,3H-furo[2,3-c]pyridine-5-carbonyl}piperazin-1-yl)-7-oxo-4H,7H-[1,2,4]triazolo[1,5-a]pyrimidin-4-yl]acetamide]
